From PMC12608155, “Discovery of Potential Antileishmanial Compounds Through Phenotypic Screening of an Alkaloid Library” (Molecules, 2025)
Read-outs that look alike come from different tables or passages of the source.

Assays:
[1] = system: L. donovani IRFP axenic amastigotes; experiment: Primary single-concentration screening on axenic amastigotes, growth inhibition at 72 h; assay type: cell-based, Leishmania donovani; settings: axenic amastigotes; for inhibition at 1 µM / inhibition at 10 µM: Leishmania donovani; for inhibition at 1 µM / Growth Inhibition (%) at 72h, 1 µM_Exp1 / Growth Inhibition (%) at 72h, 1 µM_Exp2: 1 µM; for inhibition at 10 µM / Growth Inhibition (%) at 72h, 10 µM_Exp1 / Growth Inhibition (%) at 72h, 10 µM_Exp2: 10 µM
[2] = system: L. donovani IRFP axenic amastigotes; experiment: Dose-response assay on axenic amastigotes; assay type: cell-based, Leishmania donovani
Description: The objective of the present study was to identify new antileishmanial drug candidates by screening a commercial library of plant-derived alkaloids using a platform based on axenic amastigotes of L. donovani IRFP—the causative agent of VL—genetically modified to emit infrared fluorescence during their viable stage (hereafter referred to as L. donovani IRFP). To this end, single-dose assays at 10 μM and 1 μM, as well as dose–response assays, were performed. Compounds showing significant activity in the initial screening were subsequently clustered according to chemical structure using the DataWarrior tool, and representative compounds were further evaluated in dose response assays against axenic amastigotes.
Female Balb/c mice aged from 6 to 8 weeks were intraperitoneally inoculated with 1.5 × 10^9 infective L. donovani IRFP metacyclic promastigotes. Between 8 and 12 weeks after infection, mice were humanely euthanised and bone marrow was collected from the femurs and tibias of both hind limbs. The bones were cut at both ends, and prewarmed PBS was flushed through the medullary cavity using a syringe fitted with a 27G needle, to extract the bone marrow cells. The resulting cell suspension was filtered through a 100 µm cell strainer and centrifuged at 2500 rpm for 10 min at room temperature. To obtain free amastigotes, the pelleted cells were resuspended within a 75 mL ventilated flask in amastigote culture medium (15 mM KCl; 136 mM KH2PO4; 10 mM K2HPO4.3H2O; 0.5 mM MgSO4.7 H2O; 24 mM NaHCO3; 22 mM glucose; 1 mM glutamine, 1x RPMI 1640 vitamin mix (Sigma-Aldrich, Merck, Darmstadt, Germany), 10 mM folic acid, […], 1x RPMI amino acid mix (Sigma-Aldrich, Merck, Darmstadt, Germany), […], antibiotic mixture, 25 mM MES, 10% FBS (Gibco, ThermoFisher Scientific, Waltham, MA, USA) and incubated at 37 °C in a humidified atmosphere containing 5% CO2 [46].
The efficacy of the selected compounds was assessed by measuring near-infrared fluorescence (700 nm) using an Odyssey Infrared Imaging System (Li-Cor, Lincoln, NE, USA) following the previously described protocols.

[3] = system: L. donovani IRFP intramacrophagic amastigotes; experiment: Dose-response assay on ex vivo infected splenic explants (intramacrophagic amastigotes); assay type: cell-based, Leishmania donovani; settings: read-out: EC50 Intramacrophagic Amastigotes
[4] = Cytotoxicity in RAW 264.7 cells (alamarBlue, 72 h); settings: mouse
Description: (§1) To this end, we calculated SIs from 16 preselected results from the ex vivo system. With this aim, dose–response curves were performed in duplicate across at least three independent experiments using RAW 264.7 mouse macrophages (as a model of host cells harboring amastigotes) and HepG2 (as a model for assessing systemic toxicity).
(§2) To evaluate the safety of the selected compounds, two cell lines were employed: RAW 264.7 (a mouse macrophage-derived cell line) and HepG2 (a human hepatoma cell line). Furthermore, to determine the intestinal tolerance relevant to potential oral administration, mouse intestinal organoids were prepared.
(§3) RAW 264.7 and HepG2 were routinely cultured under standard conditions. RAW 264.7 cells were maintained in RPMI medium (Gibco) supplemented with, 25 mM HEPES, 24 mM NaHCO3, 2 mM L-glutamine, mixture of antibiotics and 10% FBS. HepG2 cells were cultured in DMEM/F-12 (Gibco) and supplemented 10% of FBS. For cytotoxicity assays, 10,000 cells per well were seeded into 96-well plates and incubated overnight at 37 °C with 5% of CO2. Subsequently, 2-fold serial dilutions of the compounds were added and incubated for 72 h. Cell viability using the alamarBlue™ assay according to the manufacturer’s instructions, and fluorescence was measured with a Varioskan™ LUX microplate reader (ThermoFisher Scientific, Waltham, MA, USA). Non-linear regression analyses were performed using SigmaPlot^TM software (version 10.0) to calculate CC50. Data were obtained from at least three independent experiments performed in duplicate.

[5] = Cytotoxicity in HepG2 cells (alamarBlue, 72 h); settings: human
Description: as §1, §2, §3

RAW 264.7 = experiment: Cytotoxicity in RAW 264.7 cells (alamarBlue, 72 h); settings: read-out: CC50 RAW 264.7; 72 h, alamarBlue
Description: as §1, §2, §3

HepG2 = experiment: Cytotoxicity in HepG2 cells (alamarBlue, 72 h); settings: read-out: CC50 HepG2; 72 h, alamarBlue
Description: as §1, §2, §3

[6] = Tolerance of mouse intestinal organoids (alamarBlue); assay type: cell-based; settings: C57BL/6, mouse, mouse intestinal organoids (from duodenal crypts); 72 h incubation, Figure S4; read-out: CC50 mouse intestinal organoids
Text: (§4) Mouse intestinal organoids were generated following protocols standardized previously. Briefly, to obtain adult intestine stem cells, C57BL/6 mice were humanely euthanized. A section of the duodenum was excised, rinsed in ice-cold PBS, and cut into small pieces for gentle dissociation using Gentle Cell Dissociation Reagent. Tissue fragments enriched in duodenal crypts and little tissue debris were microscopically selected and resuspended in a 1:1 mixture of Geltrex™ and IntestiCult™ Mouse Medium (Gibco, ThermoFisher Scientific, Waltham, MA, USA /Stemcell Technologies^TM, Vancouver, BC, Canada). Aliquots of 50 µL of this suspension were dispensed into the center of each well of a prewarmed 24-well plate to form domes containing organoids, which were then incubated to allow matrix polymerization. Then, […] of IntestiCult™ Mouse Medium was added to each well. The plate was incubated at 37 °C in a humidified atmosphere containing 5% CO2, and the culture medium was refreshed every 48 h. During this period, organoids continued to proliferate, and passaging was performed at a 1:4 ratio every 7–10 days.
(§5) To determine the in vitro tolerance to oral administration of the active compounds, a 384-well assay was adapted from the protocol described by Du and co-workers. Briefly, following medium removal, organoids were collected from the extracellular matrix using the same procedure as for passaging. The resulting pellet was resuspended in 3.2 mL of a 1:1 mixture of Geltrex™ LDEV-Free Reduced Growth Factor Basement Membrane Matrix (without phenol red, Gibco) and IntestiCult™ Mouse Medium. Using a chilled pipette dispenser, 8 µL of the organoid suspension was dispensed into pre-cooled 384-well plates, which were then gently agitated to evenly distribute the matrix. The plates were incubated at 37 °C for 10 min and then, 32 µL of IntestiCult™ Mouse Medium was added to each well. To prevent edge effects, 100 µL of sterile water was added to the perimeter wells. After 3 days of culture, 10 µL per well of the test compounds dissolved in IntestiCult™ Mouse Medium were added. Positive (0.03% H2O2) and negative (0.2% DMSO) controls were included in each assay. After 72 h of incubation, 5 µL of alamarBlue™ HS were added to each well, and fluorescence was measured after 24 h using a Varioskan™ LUX microplate reader. All assays were conducted in triplicate and repeated in at least three independent experiments.

[7] = system: mouse intestinal organoids; experiment: as above; assay type: cell-based; settings: 72 h incubation, Figure S4
Text: as §4, §5

[8] = experiment 1, 72 h, read-out: Growth Inhibition (%) at 72h, 1 µM_Exp1
[9] = experiment 2, 72 h, read-out: Growth Inhibition (%) at 72h, 1 µM_Exp2
[10] = experiment 1, 72 h, read-out: Growth Inhibition (%) at 72h, 10 µM_Exp1
[11] = experiment 2, 72 h, read-out: Growth Inhibition (%) at 72h, 10 µM_Exp2
[12] = Leishmania donovani, Splenocyte, primary cultures of infected mouse splenocytes
[13] = primary cultures of infected mouse splenocytes
[14] = Leishmania donovani, Splenocyte, in Mus musculus

| Structure (SMILES) | inhibition at 1 µM [1, 8] [%] | inhibition at 1 µM [1, 9] [%] | inhibition at 10 µM [1, 10] [%] | inhibition at 10 µM [1, 11] [%] | IC50 ([2]; Leishmania donovani) [nM] | EC50 [3, 12] [nM] | CC50 at 72 h ([4]; RAW 264.7 macrophage cells) [nM] | CC50 at 72 h ([5]; HepG2 hepatoma cells) [nM] | also measured |
| --- | --- | --- | --- | --- | --- | --- | --- | --- | --- |
| COc1ccc2c(c1OC)CN(C)c1c-2ccc2cc3c(cc12)OCO3 [Dihydrochelerythrine] | 100 | 97.9 | 100 | 100 | 60 ± 5 | 10500 ± 750 | > 50000 | > 50000 | – |
| CC[C@@H]1[C@H]2CCCCN3[C@H]2[C@H](C[C@H]3[C@@H]2C[C@H](C)C(=O)O2)[C@@H]2[C@H]1OC(=O)[C@H]2C [Tuberostemonine] | 63.6 | 53 | 102 | 101 | 2060 ± 110 | > 50000 | – | – | CC50 at 72 h [4]: 50000 ± 5510 nM; CC50 at 72 h [5]: > 40000 nM |
| CCOC1c2c(ccc3c2OCO3)-c2ccc3cc4c(cc3c2N1C)OCO4 (stereo not drawn) [Ethoxysanguinarine] | – | – | – | – | – | – | – | – | Growth Inhibition (%) at 72h, 1 µM_Exp1 ([1]; experiment 1, 72 h): 100.74%; Growth Inhibition (%) at 72h, 1 µM_Exp2 ([1]; experiment 2, 72 h): 99.44%; Growth Inhibition (%) at 72h, 10 µM_Exp1 ([1]; experiment 1, 72 h): 100.41%; Growth Inhibition (%) at 72h, 10 µM_Exp2 ([1]; experiment 2, 72 h): 100.07%; IC50 [2]: 210 ± 30 nM; EC50 [3, 13]: 840 ± 30 nM; CC50 (RAW 264.7): 1620 ± 110 nM; CC50 (HepG2): 1440 ± 30 nM |
| COc1ccc2cc3[n+](cc2c1OC)CCc1cc2c(cc1-3)OCO2 [Berberine] | – | – | – | – | 570 ± 80 | 1760 ± 60 | > 20000 | > 20000 | CC50 at 72 h [6]: > 25000 nM |
| C[n+]1cc2c3c(ccc2c2ccc4cc5c(cc4c21)OCO5)OCO3 [Sanguinarine] | 99.7 | 99.5 | 100 | 101 | 190 ± 10 | – | 1840 ± 60 | 2080 ± 60 | EC50 [3, 14]: 850 ± 30 nM |
| CN1Cc2c(ccc3c2OCO3)-c2ccc3cc4c(cc3c21)OCO4 [Dihydrosanguinarine] | 99.3 | 97.6 | 99.8 | 99.7 | 190 ± 10 | – | – | – | EC50 [3, 14]: 8550 ± 1330 nM; CC50 at 72 h [4]: 46500 ± 10100 nM; CC50 at 72 h [5]: > 40000 nM |
| COc1ccc2c(C)c3[n+](cc2c1OC)CCc1cc2c(cc1-3)OCO2 [13-Methylberberine] | – | – | – | – | – | – | – | – | Growth Inhibition (%) at 72h, 1 µM_Exp1 ([1]; experiment 1, 72 h): 58.33%; Growth Inhibition (%) at 72h, 1 µM_Exp2 ([1]; experiment 2, 72 h): 69.84%; Growth Inhibition (%) at 72h, 10 µM_Exp1 ([1]; experiment 1, 72 h): 86.05%; Growth Inhibition (%) at 72h, 10 µM_Exp2 ([1]; experiment 2, 72 h): 98.60%; IC50 [2]: 500 ± 40 nM; EC50 [3, 13]: 750 ± 20 nM; CC50 (RAW 264.7): > 10000 nM; CC50 (HepG2): 28300 ± 9180 nM; CC50 [7]: > 10000 nM |
